pKi: −log10 of the molar value. Structures can show the parent of a compound that is named as a salt.
Assays:
Format in all cases: biochemical
Human plasma kallikrein = molecular target: T1, Human plasma kallikrein (Homo sapiens, UniProt P03952); test: Determination of the inhibition constant Ki for plasma kallikrein (chromogenic substrate S-2302, Dixon plot); settings: substrate S-2302, 37° C.
T1 construct: purchased Callbiochem (Calbiochem)
Procedure: Determination of the Inhibition Constant Ki for Plasma Kallikrein
(§1) Inhibition of plasma kallikrein activity in vitro was determined using standard published methods (see e.g. Johansen et al., Int. J. Tiss. Reac. 1986, 8, 185; Shori et al., Biochem. Pharmacol., 1992, 43, 1209; Stüjrzebecher et al., Biol. Chem. Hoppe-Seyler, 1992, 373, 1025). Human plasma kallikrein (Callbiochem) was incubated at 37° C. with three different concentrations of the chromogenic substrate S-2302 (Chromogenix AB) and various concentrations of the test compound. Residual enzyme activity (initial rate of reaction) was determined by measuring the change in optical absorbance at 405 nm and the inhibitory constant Ki for the test compound as determined from a Dixon plot (Dixon, Biochem. J., 1953, 55, 170).

Thrombin = Thrombin (Homo sapiens, UniProt P00734); test: Enzyme selectivity: inhibition of thrombin (substrate S-2238)
Procedure: as §1
Determination of Enzyme Selectivity
Selected compounds were further screened for inhibitory activity against other trypsin-like proteases following the method of Example 59 and using the appropriate enzyme and chromogenic substrate (Chromogenix AB). The selectivity is given by: Selectivity=(Ki for test enzyme)/(Ki for plasma kallikrein)

Trypsin = molecular target: T2, Trypsin (Bos taurus, UniProt P00760); test: Enzyme selectivity: inhibition of trypsin (substrate S-2222)
T2 sequence (P00760 24-246): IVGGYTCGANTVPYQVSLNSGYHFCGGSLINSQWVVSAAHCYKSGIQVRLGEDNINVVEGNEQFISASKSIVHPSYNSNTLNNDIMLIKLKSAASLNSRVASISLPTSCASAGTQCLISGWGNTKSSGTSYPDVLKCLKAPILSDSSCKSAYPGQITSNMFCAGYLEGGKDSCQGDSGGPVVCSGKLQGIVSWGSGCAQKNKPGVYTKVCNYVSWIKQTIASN
Procedure: as §1, with “Reac. 1986, 8, 185;” left out, “Pharmacol., 1992, 43, 1209;” left out, “[…] Determination of Enzyme Selectivity Selected compounds were further screened for inhibitory activity against other trypsin-like proteases following the method of Example 59 and using the appropriate enzyme and chromogenic substrate (Chromogenix AB). The selectivity is given by: Selectivity=(Ki for test enzyme)/(Ki for plasma kallikrein)” for “J., 1953, 55, 170).”

Human Tissue Kallikrein = Human Tissue Kallikrein (Homo sapiens, UniProt P06870); test: Enzyme selectivity: inhibition of human tissue kallikrein (substrate S-2266); settings: for Selectivity: (Ki for Human Tissue Kallikrein)/(Ki for plasma kallikrein); for pKi: Human Tissue Kallikrein, substrate S-2266
Procedure: as §1, with “Reac. 1986, 8, 185;” left out, “Pharmacol., 1992, 43, 1209;” left out, “[…] Determination of Enzyme Selectivity Selected compounds were further screened for inhibitory activity against other trypsin-like proteases following the method of Example 59 and using the appropriate enzyme and chromogenic substrate (Chromogenix AB). The selectivity is given by: Selectivity=(Ki for test enzyme)/(Ki for plasma kallikrein)” for “J., 1953, 55, 170).”

Plasmin = Plasmin (Homo sapiens, UniProt P00747); test: Enzyme selectivity: inhibition of plasmin (substrate S-2390)
Procedure: as §1, with “Reac. 1986, 8, 185;” left out, “Pharmacol., 1992, 43, 1209;” left out, “[…] Determination of Enzyme Selectivity Selected compounds were further screened for inhibitory activity against other trypsin-like proteases following the method of Example 59 and using the appropriate enzyme and chromogenic substrate (Chromogenix AB). The selectivity is given by: Selectivity=(Ki for test enzyme)/(Ki for plasma kallikrein)” for “J., 1953, 55, 170).”

Sequence of Human Tissue Kallikrein (P06870 25-262): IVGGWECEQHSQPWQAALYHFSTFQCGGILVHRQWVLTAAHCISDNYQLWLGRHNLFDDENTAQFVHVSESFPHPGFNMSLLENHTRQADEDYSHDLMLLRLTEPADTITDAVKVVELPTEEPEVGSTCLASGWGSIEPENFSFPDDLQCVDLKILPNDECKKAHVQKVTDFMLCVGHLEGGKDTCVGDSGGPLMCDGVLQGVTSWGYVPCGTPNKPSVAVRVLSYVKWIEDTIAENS
T1 sequence (P03952 391-638 limits assumed): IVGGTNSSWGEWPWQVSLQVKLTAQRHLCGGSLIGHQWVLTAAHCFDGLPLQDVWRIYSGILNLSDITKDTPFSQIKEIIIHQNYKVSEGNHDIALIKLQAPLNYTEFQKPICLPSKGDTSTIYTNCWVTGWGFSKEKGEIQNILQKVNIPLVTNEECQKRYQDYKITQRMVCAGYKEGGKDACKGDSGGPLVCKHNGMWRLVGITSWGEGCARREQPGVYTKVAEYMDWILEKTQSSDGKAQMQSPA
T1 sequence (P03952 20-390 partner limits assumed): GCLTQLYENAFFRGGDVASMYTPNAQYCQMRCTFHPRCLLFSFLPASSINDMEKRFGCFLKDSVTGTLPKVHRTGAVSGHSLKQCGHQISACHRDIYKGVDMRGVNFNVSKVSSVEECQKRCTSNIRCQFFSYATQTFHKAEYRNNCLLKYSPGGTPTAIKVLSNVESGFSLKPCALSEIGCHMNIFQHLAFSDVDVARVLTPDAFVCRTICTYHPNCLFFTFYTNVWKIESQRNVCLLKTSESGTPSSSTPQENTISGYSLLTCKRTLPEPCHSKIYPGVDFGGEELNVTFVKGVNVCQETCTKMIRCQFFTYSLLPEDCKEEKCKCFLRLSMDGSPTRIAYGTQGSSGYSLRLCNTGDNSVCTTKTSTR
Sequence of Plasmin (P00747 97-810): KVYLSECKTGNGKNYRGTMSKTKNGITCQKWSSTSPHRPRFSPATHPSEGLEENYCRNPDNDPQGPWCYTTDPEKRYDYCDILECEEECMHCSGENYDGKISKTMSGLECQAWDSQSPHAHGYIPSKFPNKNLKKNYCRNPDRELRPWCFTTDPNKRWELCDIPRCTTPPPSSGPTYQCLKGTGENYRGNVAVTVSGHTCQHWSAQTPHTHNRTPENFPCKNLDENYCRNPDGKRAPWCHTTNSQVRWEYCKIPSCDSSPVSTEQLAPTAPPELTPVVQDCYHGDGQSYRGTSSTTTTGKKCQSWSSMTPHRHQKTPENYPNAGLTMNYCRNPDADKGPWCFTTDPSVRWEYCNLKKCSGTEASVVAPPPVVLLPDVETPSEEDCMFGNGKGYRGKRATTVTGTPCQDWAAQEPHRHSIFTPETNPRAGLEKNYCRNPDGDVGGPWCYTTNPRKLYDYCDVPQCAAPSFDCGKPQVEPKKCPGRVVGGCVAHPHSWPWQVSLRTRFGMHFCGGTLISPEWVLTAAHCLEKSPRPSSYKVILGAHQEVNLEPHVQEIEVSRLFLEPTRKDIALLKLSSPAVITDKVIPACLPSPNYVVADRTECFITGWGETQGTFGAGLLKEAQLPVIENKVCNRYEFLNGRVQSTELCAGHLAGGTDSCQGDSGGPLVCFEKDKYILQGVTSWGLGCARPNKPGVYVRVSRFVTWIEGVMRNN

Structure (SMILES) | pKi (Human plasma kallikrein) | Selectivity (Human Tissue Kallikrein) | pKi (Human Tissue Kallikrein) | other results
COC(=O)CN[C@H](CC1CCCCC1)C(=O)N[C@@H](Cc1ccccc1)C(=O)NC1CCN(C(=N)N)CC1 [Example 2, (2′S,2″R)-4-(2′-(3″-Cyclohexyl-2″-(methyloxycarbonylmethylamino)propanoylamino)-3′-phenylpropanoylamino)piperidine-1-carboxamidine trifluoroacetate] | 7.18 |  |  | 
N=C(N)N1CCC(NC(=O)[C@H](Cc2ccccc2)NC(=O)[C@@H](CC2CCCCC2)NCC(=O)O)CC1.O=C(O)C(F)(F)F [Example 3, (2′S,2″R)-4-(2′-(2″-(Carboxymethylamino)-3″-cyclohexylpropanoylamino)-3′-phenyl-propanoylamino)piperidine-1-carboxamidine trifluoroacetate] | 8.52 | 2,000 | 5.22 | Selectivity (Thrombin; (Ki for Thrombin)/(Ki for plasma kallikrein)): 100; pKi (Thrombin; Thrombin, substrate S-2238): 6.51; Selectivity (Trypsin; (Ki for Trypsin)/(Ki for plasma kallikrein)): 270; pKi (Trypsin; Trypsin, substrate S-2222): 6.08; Selectivity (Plasmin; (Ki for Plasmin)/(Ki for plasma kallikrein)): 1,000; pKi (Plasmin; Plasmin, substrate S-2390): 5.49
CCOc1ccc(C[C@@H](NS(=O)(=O)c2ccccc2)C(=O)N[C@@H](Cc2ccccc2)C(=O)NC2CCN(C(=N)N)CC2)cc1 [Example 42] | 8.35 | 1,500 | 5.17 | 
COC(=O)CN[C@H](CC1CCC2CCCCC2C1)C(=O)N[C@@H](Cc1ccccc1)C(=O)NC1CCN(C(=N)N)CC1 (some centres unmarked) [Example 15] | 7.72 |  |  | 
CCOc1ccc2c(c1)CN[C@@H](C(=O)N[C@@H](Cc1ccccc1)C(=O)NC1CCN(C(=N)N)CC1)C2 [Example 52] | 7.74 |  |  | 
N=C(N)N1CCC(NC(=O)[C@H](Cc2ccccc2)NC(=O)[C@@H](CC2CCC3CCCCC3C2)NCC(=O)O)CC1 (some centres unmarked) [Example 14] | 8.59 |  |  | 
CCOc1ccc(C[C@@H](NC(=O)CC)C(=O)N[C@@H](Cc2ccccc2)C(=O)NC2CCN(C(=N)N)CC2)cc1 [Example 45] | 8.52 | 16,000 | 4.31 | 
CCOc1ccc(C[C@@H](N)C(=O)N[C@H](C(=O)NC2CCN(C(=N)N)CC2)[C@H](O)c2ccccc2)cc1.O=C(O)C(F)(F)F [Example 5, (2′S,2″R, 3′R)-4-(2′-(2″-Amino-3″-(4′″-ethoxyphenyl)propanoylamino)-3′-hydroxy-3′-phenyl-propanoylamino)piperidine-1-carboxamidine trifluoroacetate] | 8.18 | >10,000 | < 4.15 | 
CCCC(=O)N[C@H](Cc1ccc(OCC)cc1)C(=O)N[C@@H](Cc1ccccc1)C(=O)NC1CCN(C(=N)N)CC1 [Example 44] | 8.39 |  |  | 
CCOc1ccc(C[C@@H](NS(C)(=O)=O)C(=O)N[C@@H](Cc2ccccc2)C(=O)NC2CCN(C(=N)N)CC2)cc1 [Example 40] | 8.05 | 210 | 5.71 | 
CCOc1ccc(C[C@@H](NC(C)=O)C(=O)N[C@@H](Cc2ccccc2)C(=O)NC2CCN(C(=N)N)CC2)cc1 [Example 43] | 8.14 | 9,400 | 4.16 | 
CCOc1ccc(C[C@@H](N)C(=O)N[C@H](C(=O)NC2CCN(C(=N)N)CC2)[C@H](OC)c2ccccc2)cc1 [Example 6, (2′S,2″R,3′R)-4-(2′-(2″-Amino-3″-(4′″-ethoxyphenyl)propanoylamino)-3′-methoxy-3′-phenyl-propanoylamino)piperidine-1-carboxamidine trifluoroacetate] | 7.60 |  |  | 
CCOc1ccc(C[C@@H](NC)C(=O)N[C@@H](Cc2ccccc2)C(=O)NC2CCN(C(=N)N)CC2)cc1 [Example 39] | 7.82 | 930 | 4.85 | 
CCOc1ccc(C[C@@H](NC(=O)c2ccccc2)C(=O)N[C@@H](Cc2ccccc2)C(=O)NC2CCN(C(=N)N)CC2)cc1.O=C(O)C(F)(F)F [Example 4, (2′S,2″R)-4-(2′-(2″-Benzoylamino-3″-(4′″-ethoxyphenyl)propanoylamino)-3′-phenyl-propanoylamino)piperidine-1-carboxamidine trifluoroacetate] | 8.85 | 13,000 | 4.73 | 
CCOc1ccc(C[C@@H](N)C(=O)N[C@@H](Cc2ccccc2)C(=O)NC2CCN(C(=N)N)CC2)cc1.O=C(O)C(F)(F)F [Example 1, (2′S,2″R)-4-(2′-(2″-Amino-3″-(4′″-ethoxyphenyl)propanoylamino)-3′-phenylpropanoyl-amino)piperidine-1-carboxamidine trifluoroacetate] | 8.35 | 10,000 | 4.35 | 
CCCOc1ccc(C[C@@H](N)C(=O)N[C@@H](Cc2ccccc2)C(=O)NC2CCN(C(=N)N)CC2)cc1 [Example 34] | 8.15 |  |  | 
N=C(N)N1CCC(NC(=O)[C@H](Cc2ccccc2)NC(=O)[C@H](N)Cc2ccc(OCc3ccccc3)cc2)CC1 [Example 32] | 8.26 |  |  | 

Source: patent US7649000B2, “Selective dipeptide inhibitors of kallikrein” (Vantia Limited, priority 2002, dated 2010)
